From US8853147B2, “Use of peptide epoxyketones for metastasis suppression” (Onyx Therapeutics, Inc., priority 2009, dated 2014)
Entries after “also recorded” stand apart in the source; their conditions may differ.

Test system: 4T1 mammary carcinoma cells
Assay: 4T1 mammary carcinoma metastasis model in BALB/c mice (mammary fat pad challenge, lung metastases)
Format: in vivo
Conditions: female BALB/c mice
Procedure: 6-8 week old female BALB/c mice were challenged in the mammary fat pad with 4T1 mammary carcinoma cells (1×10^5/mouse). Treatment was initiated on Day 3 post tumor challenge. Compound 1 was administered orally at 30 or 40 mg/kg on a weekly schedule of QDX2 or QDX5.

In the case of `COC[C@H](NC(=O)c1cnc(C)s1)C(=O)N[C@@H](COC)C(=O)N[C@@H](Cc1ccccc1)C(=O)[C@@]1(C)CO1` [Compound 1], the “reduction of the number of metastatic tumors in the lung” value (4T1 cells 1×10^5/mouse in mammary fat pad, oral 30 or 40 mg/kg, weekly schedule QDX2 or QDX5, treatment from Day 3 post tumor challenge) was “about 50%” and the “repression of metastasis (number of metastatic tumors), result in words” value (4T1 model, both dose schedules (QDX2, QDX5) and dose levels (30, 40 mg/kg oral), FIG. 1) was “reduction in the number of metastatic breast tumors; also recorded: effective in repressing metastasis”.
